The values below come from US7528259B2, “Derivatives of 4,5,6,7-tetrabromobenzimidazole and method of their preparation” (Selvita SP. Z O. O., priority 2004, dated 2009).

The structures appear in SMILES notation. Like-named read-outs stand apart in the source and are kept apart here.

Data set [1] relates to CK1 (casein kinase 1). Put plainly: Enzymatic activity of kinases, residual activity with inhibitor. The class given is biochemical, rat. The following applies: inhibitor at 10 μM; percentage activity without an inhibitor. How it is done:
(§1) Tests of enzymatic activity of kinases were carried out using methodology described by Sarno et al. 2003 and are summarized in Table 1. […] Native CK1 (nCK1) and CK2 (nCK2) were purified from rat liver (Meggio et al., 1981); Golgi CK (G-CK), purified from rat lactating mammary gland, was provided by Dr. A. M. Brunati (Padova, Italy). Protein tyrosine kinases Lyn, c-Fgr, Syk (also termed TPK-IIB) were purified from rat spleen as previously referenced (Sarno et al., 2003). Human recombinant α and β subunits of CK2 were expressed in E. coli and the holoenzyme was reconstituted and purified as previously described (Sarno et al., 1996). The […] and […] CK2 mutants were obtained as described previously (Sarno et al., 2003). […] double mutant was obtained with the “QuikChange-SiteDirected Mutagenesis” kit (Stratagene), using human […] cDNA α inserted in pT7-7 vector as template and two synthetic oligonucleotide primers, [NT] and [NT], each complementary to opposite strands of template. Expression and purification of the mutant was performed as previously described (Sarno et al., 2003).

For data set [2], the system named is G-CK (casein kinase from Golgi apparatus). The description is as above. The class given is biochemical, rat. The following applies: inhibitor at 10 μM; percentage activity without an inhibitor. As to the method:
as §1

The target of data set [3] is DYRK1a (Homo sapiens, UniProt Q13627). Described as above. The class given is biochemical. The following applies: inhibitor at 10 μM; percentage activity without an inhibitor. How it is done: Tests of enzymatic activity of kinases were carried out using methodology described by Sarno et al. 2003 and are summarized in Table 1. The residual activity was determined by incubation in the presence of inhibitor at a concentration of 10 μM and expressed as percentage activity without an inhibitor.
Saccharomyces cerevisiae piD261 was provided by Dr. S. Facchin (Padova, Italy). The source of all the other protein kinases used for specificity assays is either described or referenced by Davies et al. (2000).

Data set [4] deals with T1, CK2 (Rattus norvegicus, UniProt P19139).
T1 construct: Native CK1 (nCK1) and CK2 (nCK2) were purified from rat liver; from tissue; host or cells: rat liver
Put plainly: CK2 phosphorylation assay, kinetic determination of inhibition constant. The class given is biochemical.

Data set [5] concerns human leukemia Jurkat cells. The data set can be described thus: Caspase activation by Western blot of PARP and HS1 degradation. The class given is cell-based. The following applies: 14 hours, 5 or 10 uM, FIG. 2. As to the method:
Leukemia Jurkat cells were incubated for 14 hours without the addition of 2-dimethylamino-4,5,6,7-tetrabromobenzimidazole (C), and in a medium including 5 or 10 uM of 2-dimethylamino-4,5,6,7-tetrabromobenzimidazole and 50 ng/mL of antiFas (aF), a control substance to follow the apoptosis process.
The human leukemia Jurkat T-cell line was maintained in RPMI-1640, supplemented with 10% (v/v) fetal calf serum, 2 mM L-glutamine, 100 units/ml penicillin and 100 ug/ml streptomycin. For the treatment, cells were suspended at a density of 10^6 cells/ml in a medium containing 1% (v/v) fetal calf serum, then incubated at 37° C., in the presence of the compounds at the indicated concentrations. Control cells were treated with equal amounts of solvent inhibitor was solved. At the end of incubations, cells were lysed by the addition of hypoosmotic buffer, as previously described (Sarno et al., 2003).
(§2) Cell viability was assessed by means of 3-(4,5-dimethylthiazol-2-yl)-3,5-diphenyltriazolium bromide (MTT) reagent, while caspase activation was followed by Western blot monitoring of PARP and HS1 protein degradation, as previously described (Ruzzene et al., 2002).

Data set [6] concerns human leukemia Jurkat T cells. Put plainly: Cytotoxic effect, MTT viability assay. The class given is cell-based. To be noted: 24 hours. How it is done:
Leukemia Jurkat cells were incubated for 24 hours in a medium of increasing concentration of 4,5,6,7-tetrabromobenzimidazole (TBB) or 2-dimethylamino-4,5,6,7-tetrabromobenzimidazole (K25). The cytotoxic effect was assessed by means of staining with a use of MTT, (3-(4,5-dimethylthiazol-2-yl)-3,5-diphenyltriazolium bromide, reagent. Control cells were incubated in a medium with added solvent (DMSO, 05% v/v). The results were calculated as mean values of three experiments. The resulting cytotoxic effect of 4,5,6,7-tetrabromo-2-dimethylaminobenzimidazole on human leukemia Jurkat T cells is presented in FIG. 1. […].
The human leukemia Jurkat T-cell line was maintained in RPMI-1640, supplemented with 10% (v/v) fetal calf serum, 2 mM L-glutamine, 100 units/ml penicillin and 100 ug/ml streptomycin. For the treatment, cells were suspended at a density of 10^6 cells/ml in a medium containing 1% (v/v) fetal calf serum, then incubated at 37° C., in the presence of the compounds at the indicated concentrations. Control cells were treated with equal amounts of solvent inhibitor was solved. […]
as §2

The test system of data set [7] is isolated mitochondria. The data set can be described thus: Depolarization of isolated mitochondria.
The mark [8] stands for this setting: CK2, competitive with respect of ATP, read-out: Inhibition constant Ki.

T1 sequence (P19139 whole entry): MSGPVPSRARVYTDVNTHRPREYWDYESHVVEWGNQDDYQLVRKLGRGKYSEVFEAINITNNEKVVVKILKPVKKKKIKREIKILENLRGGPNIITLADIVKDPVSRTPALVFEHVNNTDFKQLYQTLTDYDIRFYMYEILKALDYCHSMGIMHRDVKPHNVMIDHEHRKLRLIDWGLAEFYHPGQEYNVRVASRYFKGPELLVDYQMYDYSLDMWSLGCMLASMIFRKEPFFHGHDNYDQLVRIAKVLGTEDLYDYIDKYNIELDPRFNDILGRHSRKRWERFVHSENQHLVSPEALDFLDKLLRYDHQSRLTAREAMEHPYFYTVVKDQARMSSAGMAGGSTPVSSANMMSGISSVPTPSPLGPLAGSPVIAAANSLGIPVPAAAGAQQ
T1 sequence (P67874 2-215 partner limits assumed): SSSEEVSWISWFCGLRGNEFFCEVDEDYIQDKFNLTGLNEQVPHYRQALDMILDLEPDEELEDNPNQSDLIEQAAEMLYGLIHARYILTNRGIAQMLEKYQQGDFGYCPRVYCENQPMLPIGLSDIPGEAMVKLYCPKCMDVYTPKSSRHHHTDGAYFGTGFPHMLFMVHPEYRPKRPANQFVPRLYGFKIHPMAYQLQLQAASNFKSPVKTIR

Consider `Brc1c(Br)c(Br)c2[nH]nnc2c1Br` [TBB, 4,5,6,7-tetrabromobenzotriazole, reference compound], for which the “Residual activity of CK1” value in data set [1] was found to be 91 percentage. Also, the “Residual activity of G-CK” value in data set [2] came to 95 percentage. In addition, the “Residual activity of DYRK1a” value in data set [3] came out at 22 percentage.
`OCCNc1nc2c(Br)c(Br)c(Br)c(Br)c2[nH]1` [2-Ethanolamine-4,5,6,7-tetrabromo-1H-benzimidazole] displayed a melting point of 216 to 218 °C. The Ki in data set [4] (setting [8]) was determined as 130 nM.
As to `CN(C)c1nc2c(Br)c(Br)c(Br)c(Br)c2[nH]1` [Example K25, 2-Dimethylamino-4,5,6,7-tetrabromo-1H-benzimidazole], the “Activation of caspase (degradation of HS1 and PARP)” value in data set [5] was “Activation of caspase”. The “Cytotoxic effect compared with TBB” value in data set [6] (FIG. 1) is listed as “several times higher”; in data set [6] (FIG. 1, listed as 2-dimethylamino-4,5,6,7-tetrabromobenzimidazole), “several times more active”. Besides, the “Residual activity of CK1” value in data set [1] came to 87 percentage. The “Residual activity of G-CK” value in data set [2] is reported as 92 percentage. In addition, in data set [7], the “Depolarization of isolated mitochondria” value is listed as “does not cause depolarization”. Further, the “Residual activity of DYRK1a” value in data set [3] is given as 2 percentage.
As for `CN(C)CCNc1nc2c(Br)c(Br)c(Br)c(Br)c2[nH]1` [2-(2-Dimethylaminoethylamino)-4,5,6,7-tetrabromo-1H-benzimidazole], the melting point was > 250 °C (dec.). The molecule also registered a Ki in data set [4] of 160 nM.
`Nc1nc2c(Br)c(Br)c(Br)c(Br)c2[nH]1` [2-amino-4,5,6,7-tetrabromobenzimidazole, reference compound]: the Ki in data set [4] (setting [8]) is 90 nM.
Regarding `CNc1nc2c(Br)c(Br)c(Br)c(Br)c2[nH]1` [2-Methylamino-4,5,6,7-tetrabromo-1H-benzimidazole], the melting point is 283 to 285 °C. The Ki in data set [4] (setting [8]) came out at 90 nM.
For the molecule `CC(O)CNc1nc2c(Br)c(Br)c(Br)c(Br)c2[nH]1` (stereo not drawn) [2-(2-hydroxypropylamino)-4,5,6,7-tetrabromo-1H-benzimidazole], the melting point fell in the range of 258 to 260 °C. For the same molecule, the Ki in data set [4] (setting [8]) was determined as 140 nM.
In the same order, the values of `CC(C)Nc1nc2c(Br)c(Br)c(Br)c(Br)c2[nH]1` [2-Isopropylamine-4,5,6,7-tetrabromo-1H-benzimidazole] are 288 to 290 °C (dec.) and 60 nM.
